Literature values as cited in patent US20130243825A1, “COMPOSITIONS AND METHODS FOR THE TREATMENT OF SKIN DISEASES” (priority 2012, published 2013).
Entries after “also recorded” stand apart in the source; their conditions may differ. Each block holds one molecule with its values, some of them ahead of it.

Columns and labels:
[1] = test system: standardized wounds created by sequential tape stripping; settings: applied to a wound for 15 seconds, 24 subjects; Pagnoni et al. 2004
vasoconstriction = settings: seven potency groups, I ultra high to VII least potent; Ference and Last 2009

stinging/burning sensation [1]: stung
Molecule: CC(C)O [70% isopropyl alcohol, isopropyl alcohol]

Molecule: CCC(=O)OCC(=O)[C@@]1(OC(=O)CC)[C@H](C)C[C@H]2[C@H]3[C@H]([C@@H](O)C[C@@]21C)[C@@]1(C)C=CC(=O)C=C1C[C@H]3Cl [Alclometasone dipropionate 0.05%, Alclometasone dipropionate]
potency group by strength in standard vasoconstriction assay (vasoconstriction): Low (VI)

Molecule: CCCCC(=O)O[C@]1(C(=O)CO)[C@@H](C)C[C@H]2[C@@H]3CCC4=CC(=O)C=C[C@]4(C)[C@@]3(F)[C@@H](O)C[C@@]21C [Betamethasone valerate 0.1%, Betamethasone valerate]
potency group by strength in standard vasoconstriction assay (vasoconstriction): Medium (IV and V)

Molecule: CCC(=O)O[C@]1(C(=O)CCl)[C@@H](C)C[C@H]2[C@@H]3CCC4=CC(=O)C=C[C@]4(C)[C@@]3(F)[C@@H](O)C[C@@]21C [Clobetasol propionate 0.05%, Clobetasol propionate]
potency group by strength in standard vasoconstriction assay (vasoconstriction): Ultra high (I)

Molecule: CC1(C)O[C@@H]2C[C@H]3[C@@H]4CCC5=CC(=O)C=C[C@]5(C)[C@H]4[C@@H](O)C[C@]3(C)[C@]2(C(=O)CO)O1 [Desonide 0.05%, Desonide]
potency group by strength in standard vasoconstriction assay (vasoconstriction): Low (VI)

Molecule: C[C@@H]1C[C@H]2[C@@H]3CCC4=CC(=O)C=C[C@]4(C)[C@@]3(F)[C@@H](O)C[C@]2(C)[C@H]1C(=O)CO [Desoximetasone 0.05%, Desoximetasone]
potency group by strength in standard vasoconstriction assay (vasoconstriction): Medium (IV and V)

Molecule: C[C@@H]1C[C@H]2[C@@H]3CCC4=CC(=O)C=C[C@]4(C)[C@@]3(F)[C@@H](O)C[C@]2(C)[C@H]1C(=O)CO [Desoximetasone 0.25%, Desoximetasone]
potency group by strength in standard vasoconstriction assay (vasoconstriction): High (II)

Molecule: CC1(C)O[C@@H]2C[C@H]3[C@@H]4C[C@H](F)C5=CC(=O)C=C[C@]5(C)[C@@]4(F)[C@@H](O)C[C@]3(C)[C@]2(C(=O)CO)O1 [Fluocinolone acetonide 0.025%, Fluocinolone acetonide]
potency group by strength in standard vasoconstriction assay (vasoconstriction): Medium (IV and V)

Molecule: CC(=O)OCC(=O)[C@@]12OC(C)(C)O[C@@H]1C[C@H]1[C@@H]3C[C@H](F)C4=CC(=O)C=C[C@]4(C)[C@@]3(F)[C@@H](O)C[C@@]12C [Fluocinonide 0.1%, Fluocinonide]
potency group by strength in standard vasoconstriction assay (vasoconstriction): Ultra high (I)

Molecule: CC(=O)OCC(=O)[C@@]12OC(C)(C)O[C@@H]1C[C@H]1[C@@H]3C[C@H](F)C4=CC(=O)C=C[C@]4(C)[C@@]3(F)[C@@H](O)C[C@@]12C [Fluocinonide 0.05%, Fluocinonide]
potency group by strength in standard vasoconstriction assay (vasoconstriction): High (II)

Molecule: CCC(=O)O[C@]1(C(=O)SCF)[C@H](C)C[C@H]2[C@@H]3C[C@H](F)C4=CC(=O)C=C[C@]4(C)[C@@]3(F)[C@@H](O)C[C@@]21C [Fluticasone propionate 0.005%, Fluticasone propionate]
potency group by strength in standard vasoconstriction assay (vasoconstriction): Medium to high (III)

Molecule: CCC(=O)O[C@]1(C(=O)SCF)[C@H](C)C[C@H]2[C@@H]3C[C@H](F)C4=CC(=O)C=C[C@]4(C)[C@@]3(F)[C@@H](O)C[C@@]21C [Fluticasone propionate 0.05%, Fluticasone propionate]
potency group by strength in standard vasoconstriction assay (vasoconstriction): Medium (IV and V)

Molecule: CC1(C)O[C@@H]2C[C@H]3[C@@H]4CCC5=CC(=O)CC[C@]5(C)[C@@]4(F)[C@@H](O)C[C@]3(C)[C@]2(C(=O)CCl)O1 [Halcinonide 0.1%, Halcinonide]
potency group by strength in standard vasoconstriction assay (vasoconstriction): High (II)

Molecule: C[C@]12CCC(=O)C=C1CC[C@@H]1[C@@H]2[C@@H](O)C[C@@]2(C)[C@H]1CC[C@]2(O)C(=O)CO [Hydrocortisone 1%, 2.5%, Hydrocortisone]
potency group by strength in standard vasoconstriction assay (vasoconstriction): Least potent (VII)

Molecule: CCCC(=O)O[C@]1(C(=O)CO)CC[C@H]2[C@@H]3CCC4=CC(=O)CC[C@]4(C)[C@H]3[C@@H](O)C[C@@]21C [Hydrocortisone butyrate 0.1%, Hydrocortisone butyrate]
potency group by strength in standard vasoconstriction assay (vasoconstriction): Medium (IV and V); also recorded: Low (VI)

Molecule: CCCC(=O)O[C@]1(C(=O)COC(=O)CC)CC[C@H]2[C@@H]3CCC4=CC(=O)CC[C@]4(C)[C@H]3[C@@H](O)C[C@@]21C [Hydrocortisone probutate 0.1%, Hydrocortisone probutate]
potency group by strength in standard vasoconstriction assay (vasoconstriction): Medium (IV and V)

Molecule: CCCCC(=O)O[C@]1(C(=O)CO)CC[C@H]2[C@@H]3CCC4=CC(=O)CC[C@]4(C)[C@H]3[C@@H](O)C[C@@]21C [Hydrocortisone valerate 0.2%, Hydrocortisone valerate]
potency group by strength in standard vasoconstriction assay (vasoconstriction): Medium (IV and V)

Molecule: C[C@@H]1C[C@H]2[C@@H]3CCC4=CC(=O)C=C[C@]4(C)[C@@]3(Cl)[C@@H](O)C[C@]2(C)[C@@]1(OC(=O)c1ccco1)C(=O)CCl [Mometasone furoate 0.1%, Mometasone furoate]
potency group by strength in standard vasoconstriction assay (vasoconstriction): Medium (IV and V)

Molecule: Augmented betamethasone dipropionate
potency group by strength in standard vasoconstriction assay (vasoconstriction): Ultra high (I); also recorded: High (II)
